Laboratory results taken from paper PMC10988555, “Exploiting Co(III)-Cyclopentadienyl Complexes To Develop Anticancer Agents” (Inorganic Chemistry, 2024).

Key:
[1] = test system: normal human primary dermal fibroblasts; assay: Antiproliferative activity, MTS assay, healthy fibroblasts; type: cell-based; conditions: 48 h exposure, healthy human cells
Method: (§1) Human colorectal carcinoma cell line (HCT116), human breast cancer cell lines (MDA-MB-231 and MCF-7), and normal human primary dermal fibroblasts neonatal (PCS-201-010) cell line were grown in DMEM (Dulbecco’s modified Eagle’s medium) (Invitrogen Corp., Grand Island, NY, USA) supplemented with 10% (v/v) fetal bovine serum and 1% (v/v) antibiotic/antimycotic solution (Invitrogen Corp.). The human ovarian carcinoma (A2780) cell line was cultivated using RPMI (Roswell Park Memorial Institute) medium supplemented as in DMEM medium. The supplemented medium is named a complete medium. Cells were grown in an incubator with a humidified atmosphere at 5% (v/v) CO2 and 37 °C. All cell lines were purchased from ATCC (ATCC, American Type Culture Collection).
(§2) The evaluation of the cytotoxic potential of complexes 1–4 was obtained through in vitro measurements of the antiproliferative activity of these complexes. Cells were plated in 96-well plates at 7.5 × 10^4 cells/mL and incubated at 37 °C with 5% (v/v) CO2. After 24 h, the culture medium was replaced with fresh medium (100 μL) containing 0.1–50 μM of the different complexes and incubated for 48 h in tumor cell lines or containing 0.1–100 μM of the different complexes and incubated for 48 h in fibroblasts. […] The fibroblast cell line was used as a control of the cytotoxicity of the complexes for healthy cells. Cell viability was evaluated using Cell Titer 96 Aqueous Non-Radioactive Cell Proliferation Assay (Promega, Madison, WI, USA) using 3-(4,5-dimethylthiazol-2-yl)-5-(3-carboxymethoxyphenyl)-2-(4-sulfophenyl)-2H-tetrazolium inner salt (MTS), as described previously.[60] In metabolically active cells, enzymes present in the mitochondria catalyze a reaction in which NADPH/NADH is produced. These enzymes reduce the MTS reagent into a brownish product, Formazan, which can be quantified by measuring the absorbance at 490 nm. The quantity of formazan produced is directly proportional to the number of viable cells in the culture. This quantification was executed with a Biorad microplate reader Model 680 (Bio-Rad, Hercules, CA, USA). Half maximal inhibitory concentration (IC50) was calculated using GraphPad Prism 6 (GraphPadSoftware). We have calculated the ratio between the IC50 of fibroblasts and the IC50 of HCT116, A2780, MDA-MB-231, or MCF-7 cell lines for complexes 1–4 that was named herein as the Selectivity index (SI). To ensure the solubility of the complexes in all biological assays, complex solutions were freshly prepared and well solubilized before addition to the cells.

[2] = test system: HCT116 (human colorectal carcinoma) cell line; assay: Antiproliferative activity, MTS assay, HCT116; type: cell-based; conditions: for IC50: 48 h exposure, MTS assay; for Selectivity index (SI) of ligands, HCT116: Table S3, values with * calculated taking fibroblast IC50 as 50 µM (minimal value)
Method: as §1, §2

[3] = test system: A2780 (human ovarian carcinoma) cell line; assay: Antiproliferative activity, MTS assay, A2780; type: cell-based; conditions: for IC50: 48 h exposure, MTS assay; for Selectivity index (SI) of ligands, A2780: Table S3, values with * calculated taking fibroblast IC50 as 100 µM (minimal value)
Method: as §1, §2

[4] = test system: DNA of A2780 cells; assay: Single-cell gel electrophoresis (comet assay); type: cell-based, human; conditions: A2780; complexes 10× IC50 for 12 h; H2O2 0.05% for 30 min at RT
Method: A2780 cells were seeded in 6-well plates with a density of 1 × 10^6 cells/well and incubated for 24 h in an incubator with a humidified atmosphere at 5% (v/v) CO2 and 37 °C. […] The complexes and DMSO were incubated at 37 °C for 12 h and H2O2 for 30 min at RT. Cells were harvested with a cell scraper and solutions with 1 × 10^5 cells/mL in PBS were prepared. It was withdrawn 10 μL from the solutions and added to 90 μL of 1.5% (w/v) low melting point agarose in 1× PBS and dropped on the slides prepared previously with a coating of 1.5% (w/v) agarose (normal melting point agarose) in 1× TAE buffer. After drying at 4 °C for 15 min, the slides were dipped into lysis solution (450 mM NaCl, 3.72% EDTA, 5 mM Tris; to which 10% (v/v) DMSO and 1% (v/v) Triton-X were added just before use) for 1 h at 4 °C, followed by their being dipped for 40 min into cold electrophoresis solution (1 mM EDTA, 300 mM NaOH, pH 13). Electrophoresis was performed at 4 °C for 30 min at 25 V using a Sub-Cell model 96 apparatus (Bio-Rad). Afterward, slides were placed in 0.1 M Tris–HCl buffer (pH 7.5) at 4 °C for 15 min for neutralization, followed by 15 min in methanol at 4 °C and drying at 37 °C. For visualization of comets, slides were hydrated with distilled water at 4 °C for 30 min, stained with 20 μL of GelRed working solution (3×), and covered with new coverslips. The slides were observed under a Ti–U Eclipse inverted microscope (Nikon Instruments, Japan) and analyzed by CometScore version 2.1 (TriTek). About 100 cells per sample were analyzed. The percentage of DNA in the tail was used as a measure of the total DNA strand breakage.

[5] = test system: A2780 cell line; assay: Autophagy induction, flow cytometry; type: cell-based, human; conditions: A2780, 48 h; complexes at IC50, DOX 0.4 μM, cisplatin 5 μM; rapamycin 500 nM for 15 h
Method: The autophagy induced by complexes 2–4 was evaluated using the Autophagy Assay Kit (ab139484, Abcam, Cambridge, United Kingdom) according to the manufacturer’s instructions. For this, the A2780 cell line was seeded at a density of 2 × 10^5 cells/well in 6-well plates and incubated for 24 h at the conditions mentioned before. […] The positive control Rapamycin at 500 nM was incubated for only 15 h. After 48 h incubation, the cells were washed with PBS 1×, detached with TE, and treated with the Autophagy detection kit (Abcam, Cambridge, UK) according to the manufacturer’s instructions. The evaluation of autophagy induction was done through the Attune acoustic focusing flow cytometer (ThermoFisher Scientific) and respective software.

[6] = test system: A2780 cells; assay: Cell cycle progression (PI flow cytometry, double thymidine block); type: cell-based, human; conditions: A2780, 24 h; complexes at IC50, DOX 0.4 μM, cisplatin 5 μM
Method: The interference of the copper complexes 2–4 in the cell cycle progression was evaluated in A2780 cells, seeded in 6-weel plates, with a density of 2 × 10^5 cells/well, and incubated for 8 h at the same conditions as described above. After that incubation time, the cells were synchronized in early S-phase with a 2 mM thymidine solution (Sigma, St. Louis, USA) for a 16 h period. Media with thymidine was replaced by fresh media and, after 8 h, another 2 mM thymidine solution was added to the wells (double thymidine block) and incubated for 16 h. […] Cells were incubated for 9, 18, or 24 h, and, at each hour, the cells were treated with TE and centrifuges at 650 × g for 5 min at 4 °C. The pellet was resuspended in PBS 1× and centrifuged at 3000 × g for 5 min at 4 °C. Later, the pellet was resuspended in 100 μL of PBS 1×, and 1 mL of a solution of 80% (v/v) ethanol was gently added to the cells. Cells were stored at 4 °C for at least 12 h and then centrifuged for 10 min at 7500 × g at 4 °C, treated with 250 μL of 50 μg/mL RNase A, and incubated for 30 min at 37 °C. After incubation, 100 μL of PI (25 μg/mL) was added to the cells as well as 650 μL of PBS 1×. The DNA content was evaluated on an Attune Acoustic Focusing Flow Cytometer (ThermoFisher Scientific) and results were analyzed by the respective software.

[7] = test system: MDA-MB-231 (human breast cancer) cell line; assay: Antiproliferative activity, MTS assay, MDA-MB-231; type: cell-based; conditions: 48 h exposure
Method: as §1, §2

[8] = Octanol-water partition coefficient, shake-flask method; type: physicochemical; conditions: room temperature
Method: The lipophilicity of the CoCp complexes was estimated by the shake-flask method.[54] Before the assays, n-octanol was vigorously mixed with distilled water for 24 h at room temperature to promote solvent saturation of both phases. After separating the phases, the complexes were dissolved in the n-octanol phase to obtain solutions 1.0 × 10^–5 to 2.5 × 10^–4 M. Then, each solution was equilibrated with water for 4 h in a mechanical shaker, at a phase ratio of 2 mL n-octanol:2 mL water. Afterward, the aqueous and octanol layers were carefully separated by centrifugation (5000 rpm, 10 min), and the UV–vis absorption spectra of the complexes were recorded in the n-octanol phase. For each sample, the concentration was determined by using a calibration curve in n-octanol. All experiments were performed in triplicate for each complex, being the averages used for calculation purposes. Finally, the values of the partition coefficients were calculated by resorting to the following eq (eq 1): [drawing 1] 1 where logPoct/water represents the octanol–water partition coefficient, [complex]oct represents the concentration of the complex in the n-octanol phase, and [complex]water represents the concentration of the complex in the water phase.

[9] = test system: MCF-7 (human breast cancer) cell line; assay: Antiproliferative activity, MTS assay, MCF-7; type: cell-based; conditions: 48 h exposure, MTS assay
Method: as §1, §2

Row | Structure (SMILES) | IC50 ([1]; Fibroblast) [µM] | IC50 ([2]; Homo sapiens, HCT-116) [µM] | IC50 ([3]; Homo sapiens, A2780) [µM] | Selectivity index (SI) of ligands, A2780 [3] | further results
1 | Cc1ccnc(-c2cc(C)ccn2)c1 [Me2bipy, 4,4′-dimethyl-2,2′-bipyridine] | > 50 | 12.4 ± 0.2 | 17.6 ± 0.1 | 2.8 | Selectivity index (SI) of ligands, HCT116 [2]: 4.0; fold less cytotoxic than Phen and NH2phen ligands ([3]; free ligand, A2780 and HCT116): about 10 fold
2 | OO [hydrogen peroxide, reference compound] | – | – | – | – | % of DNA in the tail [4]: 73%
3 | COc1cccc2c1C(=O)c1c(O)c3c(c(O)c1C2=O)C[C@@](O)(C(=O)CO)C[C@@H]3O[C@H]1C[C@H](N)[C@H](O)[C@H](C)O1 [doxorubicin, reference compound] | – | 0.5 ± 0.1 | 0.1 ± 0.1 | – | levels of autophagy [5]: 84.1%; % of cells in the G2/M phase [6]: 77.9%
4 | N.N.[Cl][Pt][Cl] [cisplatin, reference compound] | – | – | – | – | levels of autophagy [5]: 96.7%; IC50 [2]: 15.6 ± 5.3 µM; % of cells in the G2/M phase [6]: 31.3%; IC50 [3]: 1.9 ± 0.2 µM
5 | c1ccc(P(c2ccccc2)c2ccccc2)cc1 [PPh3, triphenylphosphane] | > 50 | > 50 | 37.8 ± 0.1 | 1.3 | –
6 | O=[C]=[Co]([I])([I])[CH]1C=CC=C1 [[CoCp(CO)I2]] | – | – | – | 1.7 | IC50 [1]: > 50 µM; IC50 [2]: > 50 µM; IC50 [3]: 29.9 ± 0.1 µM
7 | c1cnc2c(c1)ccc1cccnc12 [Phen, 1,10′-phenanthroline] | 50.1 ± 0.1 | 4.1 ± 0.04 | 2.4 ± 0.05 | 20.9 | Selectivity index (SI) of ligands, HCT116 [2]: 12.4
8 | c1ccc(-c2ccccn2)nc1 [bipy, 2,2′-bipyridine] | > 50 | > 50 | > 50 | – | –
9 | O=S(=O)([O-])C(F)(F)F.O=S(=O)([O-])C(F)(F)F.[Co+3].c1cc[cH-]c1.c1ccc(-c2ccccn2)nc1.c1ccc(P(c2ccccc2)c2ccccc2)cc1 [Complex 1, [Co(η^5-C5H5)(PPh3)(bipy)][(CF3SO3)2]] | – | – | – | – | IC50 [7]: > 50 µM; IC50 [1]: > 100 µM; IC50 [2]: > 50 µM; logP (n-octanol/water partition coefficient) [8]: −0.67 ± 0.02; IC50 [9]: > 50 µM; IC50 [3]: 18.1 ± 0.1 µM
10 | CO[C@H]1C[C@@H]2CC[C@@H](C)[C@@](O)(O2)C(=O)C(=O)N2CCCC[C@H]2C(=O)O[C@H]([C@H](C)C[C@@H]2CC[C@@H](O)[C@H](OC)C2)CC(=O)[C@H](C)/C=C(\C)[C@@H](O)[C@@H](OC)C(=O)[C@H](C)C[C@H](C)/C=C/C=C/C=C/1C [rapamycin, Rapamycin, reference compound] | – | – | – | – | levels of autophagy [5]: 72.93%
11 | Nc1cc2cccnc2c2ncccc12 [NH2phen, 5-amino-1,10′-phenanthroline] | 29.9 ± 0.4 | 2.3 ± 0.06 | 1.9 ± 0.08 | 15.2 | Selectivity index (SI) of ligands, HCT116 [2]: 13.1
